For data set [1], the system named is SW480 cells. The data set can be described thus: MTT viability assay in combination with copper chelator TTM. The class given is cell-based, human. To be noted: TTM 1 µM and 5 µM, 72 h. The protocol:
For the cytotoxicity, cell viability, and proliferation studies, the 3-(4,5-dimethylthiazol-2-yl)-2,5-diphenyltetrazolium bromide (MTT) assay was utilized. Cells were seeded in 96-well plates at a density of 2 × 10^4 cells/well, with the exception of SW480/Tria, which was used at a density of 3 × 10^4 cells/well. After 24 h of recovery, cells were treated with the indicated concentration of drugs. For the drug combination experiments, verapamil and cyclosporine A (CSA) were used as […] modulators, and tetrathiomolybdate (TTM) was used as a copper chelator. The TSCs were dissolved in DMSO followed by subsequent dilutions in the medium in order to maintain a final DMSO concentration of <1%. After 72 h, the treatment solution was removed and replaced with 100 µL of MTT solution (EZ4U, Biomedica, Vienna, Austria), which was diluted 1:10 in the growth medium. A TECAN Infinite 200 Pro plate reader was used to measure the absorbance of the solution after 2–3 h incubation at 5% CO2 in an incubator at 37 °C. The anticancer activity was determined with GraphPad Prism software and indicated as IC50 values (half maximum inhibitory concentration).
Background: Tetrazolium assays rely on reduction of a dye to a coloured formazan, in cell work by metabolically active cells.

The nature of data set [2]: pKa by UV-vis spectrophotometric titrations. Type of data set: physicochemical. To be noted: 30% (v/v) DMSO/H2O solution, I = 0.1 M (KCl), 25 °C. The protocol:
(§1) The UV-vis spectra were recorded using an Agilent Cary 8454 diode array spectrophotometer in the 200 to 950 nm window, and the path length was varied between 1 and 5 cm, depending on the solubility (thus the applicable concentration). For the spectrophotometric titrations, the same instruments (Metrohm 665 Dosimat burette, Orion 710A pH-meter, Metrohm combined pH glass electrode) and experimental setup (ionic strength: 0.10 M (KCl); titrant: 0.10 M carbonate-free KOH solution in 30% (v/v) DMSO/H2O; samples: prepared in 30% (v/v) DMSO/H2O; calibration: method of Irving et al.; pH range: 1.0 to 13.5; and sample volume: 10 cm^3) were used as in our previous work. Argon overpressure was used for the Fe(II)-containing samples when the Fe(II) stock solution was added to the samples in tightly closed titration vessels, which were previously completely deoxygenated (for 20 min). Measurements were taken with ligands (10–80 μM, depending on solubility) in the presence of 1, 0.5, and 0.3 equiv. of Cu(II), Fe(II), and Fe(III) ions. Equilibrium constants, such as the proton dissociation constants (pKa) of the ligands, the overall stability constants (logβ) of the metal complexes, and the UV-vis spectra of the individual ligand or complex species were computed using the program PSEQUAD [18], as was the case in our previous works.

Data set [3] concerns SW480 cells. As to the kind of experiment: MTT viability assay, 72 h. Type of data set: cell-based, human. To be noted: for IC50: Homo sapiens, SW480, MTT; for enhancement of cytotoxicity by copper complexation: copper complex vs. ligand. The protocol: (§2) In vitro tests were performed with human colorectal cancer SW480 cells (purchased from the American Type Culture Collection, Manassas, VA, USA), SW480/Tria, and the SW480/Coti cells, which are previously established sublines that are resistant to Triapine and COTI-2 [16], respectively. Additionally, small-cell lung carcinoma GLC-4 and its subline GLC-4/adr, which is a doxorubicin-resistant subline overexpressing ABCC1 (purchased from Dr. […], Groningen, The Netherlands), were used. All cells were maintained in a humidified 5% CO2 incubator at 37 °C and grown in minimal essential medium or RPMI-1640, respectively, supplemented with 10% fetal bovine serum (FBS). In order to maintain the resistant phenotype of GLC-4/adr cells, they were selected with doxorubicin (1152 nM) once a month. All cell lines were tested for mycoplasma contamination. For the cytotoxicity, cell viability, and proliferation studies, the 3-(4,5-dimethylthiazol-2-yl)-2,5-diphenyltetrazolium bromide (MTT) assay was utilized. Cells were seeded in 96-well plates at a density of 2 × 10^4 cells/well, with the exception of SW480/Tria, which was used at a density of 3 × 10^4 cells/well. After 24 h of recovery, cells were treated with the indicated concentration of drugs. For the drug combination experiments, verapamil and cyclosporine A (CSA) were used as ABCC1 modulators, and tetrathiomolybdate (TTM) was used as a copper chelator. The TSCs were dissolved in DMSO followed by subsequent dilutions in the medium in order to maintain a final DMSO concentration of <1%. After 72 h, the treatment solution was removed and replaced with 100 μL of MTT solution (EZ4U, Biomedica, Vienna, Austria), which was diluted 1:10 in the growth medium. A TECAN Infinite 200 Pro plate reader was used to measure the absorbance of the solution after 2-3 h incubation at 5% CO2 in an incubator at 37 °C. The anticancer activity was determined with GraphPad Prism software and indicated as IC50 values (half maximum inhibitory concentration).

For a further data set, the system named is SW480/Tria cells. As to the kind of experiment: MTT viability assay, 72 h. To be noted: for IC50: Homo sapiens, SW480, 72 h, MTT; for Relative Resistance SW480/Tria: IC50 of resistant subline divided by IC50 of parental SW480. The class given is cell-based, human. How it is done: as §2
Data set [4] can be described thus: Zinc(II) complex formation, UV-vis spectrophotometric titrations. Type of data set: physicochemical. To be noted: for pZn: calculated at cM = 1 μM, cL = 10 μM, pH = 7.40.
The nature of data set [5]: Copper(II) complex formation, UV-vis titrations and EDTA competition. Type of data set: physicochemical. To be noted: for pCu: calculated at cM = 1 μM, cL = 10 μM, pH = 7.40; for logβ5.9′ [CuL]^+: conditional stability constant, EDTA competition at pH = 5.90; for logβ [CuL]^+: β = β’ × αH, [H+] = 10^–5.90 M. How it is done: as §1
The conditional stability constants (β’) of the Cu(II) complexes were calculated from competition reactions with EDTA at pH = 5.9 using MES (50 mM) when the metal:ligand ratio was 1:1 (clig = cCu between 10 and 80 μM). Individual samples were prepared in which the ligand:EDTA ratio was variable between 1:0 and 1:50. After a 3 h incubation period, UV-vis spectra were collected. The calculation of the β’ (CuL) values was performed following the same method as that in our previous work using the logβ’5.90 = 13.89 of complex [Cu(EDTA)]^2− obtained from the previously reported equilibrium constants of EDTA and its Cu(II) complex.

Where [6] appears, read: T = 25.0 °C, I = 0.10 M (KCl), 30% (v/v) DMSO/H2O.

SMILES strings stand for the structures. Where two headings read alike, the source gives them in different places.

As usually defined, the IC50 is the point on the concentration scale where inhibition reaches its midpoint. Take `CN(C)C(=S)NN=C1CCCc2cccnc21` (mixture of isomers) [COTI-NMe2, 2-(6,7-Dihydroquinolin-8(5H)-ylidene)-N^4,N^4-dimethylhydrazine-1-carbothioamide]: the “impact of copper chelator TTM on anticancer activity” value (from here on “impact of copper chelator TTM”) in the data set with SW480 cells [1] is “strong protective activity”. Also, the pKa in data set [2] (read-out: pKa (H2L)) was determined as 3.65 ± 0.01. Also, the pKa in data set [2] (read-out: pKa (HL)) was determined as 12.09 ± 0.01. Further, the IC50 in the data set with SW480 cells [3] (72 h) was determined as 0.04 ± 0.01 µM. Moreover, the “lower IC50 value than the other tested COTI-2 derivatives” value in the data set with SW480 cells [3] (SW480 cells) was ~ 10 fold. Further, the “lower IC50 value than COTI-2” value in the data set on SW480 cells [3] (SW480 cells, 72 h) amounted to 11 fold. In addition, in the data set with SW480/Tria cells, the IC50 is 0.04 ± 0.02 µM and the “Relative Resistance SW480/Tria” value is 1.0 ^n.s. Moreover, in data set [4] (setting [6]), the “logβ [ZnL2]” value is 25.24 ± 0.08 and the “logβ [ZnL]^+” value is on record as 13.02 ± 0.04. Further, in data set [4], the pZn was 11.7. Besides, in data set [5], the pCu is given as 14.7, the “logβ5.9′ [CuL]^+” value stood at 12.23 ± 0.05 and the “logβ [CuL]^+” value stood at 18.42.

On to `S=C(N/N=C1\CCCc2cccnc21)N1CCN(c2ccccn2)CC1` [COTI-2, 4-(pyridine-2-yl)-N-([(8E)-5,6,7,8-tetrahydroquinolin-8-ylidene]amino)piperazine-1-carbothioamide], for which the “impact of copper chelator TTM” value with SW480 cells [1] is listed as “strong protective activity”. Further, the pKa in data set [2] (read-out: pKa (H2L)) came to 5.08 ± 0.01. In addition, the pKa in data set [2] (read-out: pKa (H3L)) came out at 3.23 ± 0.01. In data set [2] (read-out: pKa (HL)), the pKa is 10.97 ± 0.01. Moreover, the 50% inhibitory concentration (IC50) with SW480 cells [3] (72 h) worked out at 0.37 ± 0.17 µM. The “enhancement of cytotoxicity by copper complexation” value with SW480 cells [3] (SW480 cells, 72 h) is listed as 7–8 fold. For the same compound, the “Relative Resistance SW480/Tria” value with SW480/Tria cells was 1.1 ^n.s. For the same compound, in data set [4] (setting [6]), the “logβ [ZnL2]” value is 23.23 ± 0.08, the “logβ [ZnLH]^2+” value is on record as 18.54 ± 0.02 and the “logβ [ZnL]^+” value was found to be 12.85 ± 0.02. Besides, the pZn in data set [4] was 11.9. In addition, the “free ligand in the presence of zinc(II)” value in data set [4] (calculated distribution, 1 µM COTI-2, 2:1 ligand:zinc(II), pH 7.4) is 10–20%. In data set [5], the pCu was 15.6, the “logβ5.9′ [CuL]^+” value is given as 13.06 ± 0.02 and the “logβ [CuL]^+” value stood at 18.19.

With `CN(C(=S)N/N=C1\CCCc2cccnc21)C1CCCCC1` [COTI-NMeCy, N-Cyclohexyl-2-(6,7-dihydroquinolin-8(5H)-ylidene)-N^4-methylhydrazine-1-carbothioamide], the “impact of copper chelator TTM” value with SW480 cells [1] is given as “strong protective activity”. Also, the pKa in data set [2] (read-out: pKa (H2L)) stood at 3.47 ± 0.01. For the same compound, in data set [2] (read-out: pKa (HL)), the pKa was 12.4 ± 0.01. The IC50 in the data set on SW480 cells [3] (72 h) stood at 0.64 ± 0.1 µM. In addition, the “enhancement of cytotoxicity by copper complexation” value with SW480 cells [3] (SW480 cells, 72 h) was 7–8 fold. Further, in the data set with SW480/Tria cells, the IC50 stood at 0.71 ± 0.17 µM and the “Relative Resistance SW480/Tria” value was 1.1 ^n.s. Also, in data set [4] (setting [6]), the “logβ [ZnL2]” value was 26.32 ± 0.09 and the “logβ [ZnL]^+” value is listed as 12.94 ± 0.04. Also, in data set [4], the pZn is on record as 12.1. Moreover, in data set [5], the pCu was 15.0, the “logβ5.9′ [CuL]^+” value worked out at 12.56 ± 0.09 and the “logβ [CuL]^+” value was found to be 19.08.

The values above are taken from publication PMC9497102, “Thiosemicarbazone Derivatives Developed to Overcome COTI-2 Resistance” (Cancers, 2022).
